In patent publication US6455577B2, “Flavanone derivatives and composition for preventing or treating blood lipid level-related diseases comprising same” (Korea Research Institute of Bioscience and Biotechnology, priority 2000, dated 2002):

Columns and labels:
[1] = test system: ACAT; experiment: ACAT activity in fed rabbits; type: in vivo, rabbit; conditions: rabbits fed 1% cholesterol plus 1 mg/kg Lovastatin or 0.1% NG5006, 8 weeks
Method: 22 three-month-old New Zealand White rabbits(Yeonam Horticulture and Animal Husbandry College, Korea) each weighing about 2.0 to 2.3 kg were bred under a condition of temperature 20±2° C., relative humidity 55±10%, and photoperiod 12L/12D. The rabbits were divided two groups of 6 rabbits and a group of 10 rabbits, and the rats of three groups were fed with three different diets, i.e., RC4 diet(Oriental Yeast Co., Japan) containing 1% cholesterol(Control group); 1% cholesterol plus 1 mg/kg Lovastatin® (Merck, U.S.A.)(Comparative group); and 1% cholesterol plus 0.1% NG5006, respectively. RC4 diet comprises 7.6% moisture, 22.8% crude protein, 2.8% crude fat, 8.8% crude ash, 14.4% crude cellulose and 43.6% soluble nitrogen-free substances. The rabbits were bred for 8 weeks while being allowed free access to the diets and water.
The effect of feeding NG5006 to rabbits on the activities of ACAT was determined using the rabbits bred in Step 1 of Example 14 in accordance with procedure disclosed in step 1 of Example 13.

[2] = test system: Sprague-Dawley rats; experiment: Plasma total cholesterol, HDL-cholesterol and triglyceride levels in rats fed high-cholesterol diet; type: in vivo, rat
Description: (Step 1) Administration of NG5006 to rats
30 four-week-old white Sprague-Dawley rats (Korea Institute of Science and Technology, Korea), each weighing about 90 to 120 g, were evenly divided into three dietary groups by a randomized block design. The rats of the three groups were fed with three different high-cholesterol diets, i.e., AIN-76 laboratory animal diet(ICN Biochemicals, Cleveland, Ohio, U.S.A.) containing 1% cholesterol(Control group), 1% cholesterol plus 0.02% naringenin and 1% cholesterol plus 0.036% NG5006, respectively.
The rats were allowed to feed freely on the specified diet together with water for six weeks, the ingestion amount was recorded daily and the rats were weighed every 7 days, and then the record was analyzed. […] (Step 2) Determination of total cholesterol, HDL-cholesterol and triglyceride contents in blood
The effects of administering naringenin or NG5006 to rats on the plasma cholesterol and triglyceride contents were determined as follows.
Blood samples were taken from the rats of the three dietary groups and total cholesterol level was determined by using Sigma Diagnostic Kit Cat. No. C0534(Sigma Chemical Co., U.S.A.). HDL fractions were separated therefrom by using HDL-cholesterol reagent(Sigma Chemical Co., Cat. No. 352-1) and HDL-cholesterol level was determined by using Sigma Diagnostic Kit Cat. No. C9908(Sigma Chemical Co., U.S.A.). Triglyceride level was determined by using Sigma Diagnostic Kit Cat. No. 336-10(Sigma Chemical Co., U.S.A.).

[3] = test system: ICR mice; experiment: Toxicity of orally administered NG5006 in mice; type: in vivo, mouse; conditions: single oral dose 1, 2 and 4 g/kg
Method: 4 week-old, specific pathogen-free ICR female mice(12 heads) and male mice(12 heads) were bred under a condition of temperature 22±3° C., moisture 55±10% and photoperiod 12L/12D. Fodder(Cheiljedang Co., mouse and rat fodder) and water were sterilized and fed to the mice.
NG5006 was dissolved in 0.5% Tween 80 to a concentration of 100 mg/ml. The solution thus obtained was orally administered to the mice in amounts of 0.2 ml(1 g/kg), 0.4 ml(2 g/kg) and 0.8 ml(4g/kg) per 20 g of mouse body weight, respectively. […] The weight changes of the mice were recorded every day to examine the effect of NG5006. Further, on the 7th day, the mice were sacrificed and the internal organs were visually examined.

[4] = test system: ACAT; experiment: ACAT activity in liver microsomes of fed rats; type: in vivo, rat
Method: To determine the effect of feeding NG5006 to rats on the activities of ACAT and HMG-CoA reductase, microsomes were separated from liver tissues to be used as an enzyme source.
1 g each of the livers taken from each group of rats of Example 12 was homogenized in 5 ml of homogenization medium(0. 1 M KH2PO4, pH 7.4, 0.1 mM EDTA and 10 mM β-mercaptoethanol). The homogenate was centrifuged at 3,000×g for 10 min. at 4° C. and the supernatant thus obtained was centrifuged at 15,000×g for 15 min. at 4° C. to obtain a supernatant. The supernatant was put into an ultracentrifuge tube(Beckman) and centrifuged at 100,000×g for 1 hour at 4° C. to obtain microsomal pellets, which were then suspended in 3 ml of the homogenization medium and centrifuged at 100,000×g for 1 hour at 4° C. The pellets thus obtained were suspended in 1 ml of the homogenization medium. The protein concentration of the resulting suspension was determined by Lowry's method and then adjusted to 4 to 8 mg/ml. The resulting suspension was stored in a deep freezer(Biofreezer, Forma Scientific Inc.).
6.67 μl of 1 mg/ml cholesterol solution in acetone was mixed with 6 μl of 10% Triton WR-1339(Sigma Co.) in acetone and then, acetone was removed from the mixture by evaporation under a nitrogen flow. Distilled water was added to the resulting mixture to adjust the concentration of cholesterol to […].
Added to 10 μl of the resulting aqueous cholesterol solution were 10 μl of 1 M KH2PO4(pH 7.4), 5 μl of 0.6 mM bovine serum albumin(BSA), 10 μl of microsome solution obtained in (Step 1) and 55 μl of distilled water(total 90 μl). The mixture was pre-incubated in a water bath at 37° C. for 30 min. […]
200 μl of the resulting supernatant was put in a scintillation bottle and 4 ml of scintillation fluid(Lumac Co.) was added thereto. The mixture was assayed for radioactivity with 1450 Microbeta liquid scintillation counter(Wallac Co., Finland). ACAT activity was calculated as picomoles of cholesteryl oleate synthesized per min. per mg protein(pmoles/min/mg protein).

[5] = plasma, rats on 1% cholesterol diet plus 0.02% naringenin or 0.036% NG5006, six weeks
[6] = rats, 1% cholesterol diet, six weeks

CCCCCCCCCCCCCCCCOc1cc(O)c2c(c1)OC(c1ccc(O)cc1)CC2=O (stereo not shown) [NG5006, Naringenin 7-O-cetyl Ether]
ACAT activity [1]: 215.2 ± 30.3 pmole/min/mg protein | % Inhibition on ACAT Activity ([1]; versus control group): 16.2% | HDL-C (HDL-cholesterol) [2, 5]: 36.7 ± 1.3 mg/dL | HDL-C/Total-C [2, 5]: 20.4 ± 0.7% | TG (triglyceride) [2, 5]: 118.4 ± 3.4 mg/dL | Total-C (total cholesterol) [2, 5]: 183.5 ± 6.4 mg/dL | AI: Atherosclerosis Index (AI = (Total-C − HDL-C)/HDL-C) ([2]; rats on 1% cholesterol diet plus 0.02% naringenin or 0.036% NG5006, six weeks): 4.0 ± 0.2 | lowering blood lipid level, comparison in words [2, 6]: superior to naringenin in lowering blood lipid level | total plasma cholesterol level lower than in the Control group [2, 6]: 19% | triglyceride level lower than in the control group [2, 6]: 33% | weight change ([3]; 7 day test period): no weight loss | survival ([3]; observed 7 days): All the mice were alive at day 7 | toxicity ([3]; observed 7 days): no toxicity | autopsy, pathological abnormality ([3]; sacrificed on the 7th day): did not develop any pathological abnormality | ACAT activity lower than that of the control group ([4]; NG5006-fed rat group): 14% | ACAT activity ([4]; liver microsomes of rats fed 1% cholesterol plus 0.02% naringenin or 0.036% NG5006, six weeks): 149.7 ± 5.1 pmole/min/mg protein
